Measurements taken from patent US8481531B2, “Bicyclic heterocyclyl derivatives as FGFR kinase inhibitors for therapeutic use” (Astex Therapeutics Ltd, priority 2009, dated 2013).

How the values were obtained:
Ba/F3-TEL-FGFR3 cells = target: T1, Ba/F3-TEL-FGFR3 cells (Homo sapiens, UniProt P22607); assay: Ba/F3-TEL-FGFR3 cell proliferation assay (Alamar Blue); assay type: cell-based; conditions: 72 hours; for GI50: read-out: BaF3-TEL-FGFR3 prolif
T1 construct: fused on or other part: P41212 (Transcription factor ETV6)
Outline: (§1)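 Ba/F3-TEL-FGFR3 cells (5×10^3/well, G418) and parental Ba/F3 (2.5×10^3/well, 2 ng/ml mouse IL-3) in RPMI/10% FBS, plated overnight, then compound for 72 h at 0.1% DMSO final. Alamar Blue 4-6 h, fluorescence 535/590 nm; IC50 where inhibition high.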

[1] = tested on: parental wild-type Ba/F3 cells; assay: Ba/F3 (WT) cell proliferation assay (Alamar Blue); assay type: cell-based; conditions: BaF3, 72 hours, read-out: BaF3 WT prolif; for inhibition at 10 µM / inhibition at 3 µM: Mus musculus; for IC50: with mouse IL-3
Outline: as §1

VEGFR2 = target: T2, VEGFR2 (Homo sapiens, UniProt P35968); assay: VEGFR2 in vitro kinase inhibitory activity assay (TRF); assay type: biochemical; conditions: 0.5 μM ATP, 1 hour; read-out: VEGFR2 IC50(μM) or % I
T2 construct: purchased Upstate

FGFR3 = target: T3, FGFR3 (Homo sapiens, UniProt P22607); assay: FGFR3 in vitro kinase inhibitory activity assay (TRF); assay type: biochemical; conditions: 8 μM ATP, 3 hours; read-out: FGFR3 IC50(μM) or % I
T3 construct: purchased Upstate
T3 sequence (P22607 23-806): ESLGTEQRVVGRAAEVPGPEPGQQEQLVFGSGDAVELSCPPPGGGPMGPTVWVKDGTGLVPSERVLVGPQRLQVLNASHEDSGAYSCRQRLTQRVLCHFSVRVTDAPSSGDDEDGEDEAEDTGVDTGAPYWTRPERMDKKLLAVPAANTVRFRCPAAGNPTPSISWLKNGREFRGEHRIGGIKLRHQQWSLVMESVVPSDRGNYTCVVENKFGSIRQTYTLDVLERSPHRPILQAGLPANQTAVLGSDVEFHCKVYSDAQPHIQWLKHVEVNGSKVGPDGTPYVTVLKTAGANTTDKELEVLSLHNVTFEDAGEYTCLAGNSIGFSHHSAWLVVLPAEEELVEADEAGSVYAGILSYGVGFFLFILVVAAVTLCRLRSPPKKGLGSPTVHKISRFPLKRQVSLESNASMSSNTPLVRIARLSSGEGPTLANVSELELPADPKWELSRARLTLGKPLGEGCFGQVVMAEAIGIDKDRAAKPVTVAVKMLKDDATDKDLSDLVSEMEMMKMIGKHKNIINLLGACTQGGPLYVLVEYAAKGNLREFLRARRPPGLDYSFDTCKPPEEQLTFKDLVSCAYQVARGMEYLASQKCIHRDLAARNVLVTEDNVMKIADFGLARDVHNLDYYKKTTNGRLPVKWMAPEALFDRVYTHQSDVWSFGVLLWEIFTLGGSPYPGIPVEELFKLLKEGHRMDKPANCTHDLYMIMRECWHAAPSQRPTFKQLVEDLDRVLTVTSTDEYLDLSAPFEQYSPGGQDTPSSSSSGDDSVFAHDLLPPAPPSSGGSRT

T1 sequence (P22607 whole entry, change not shown, the tested form may be a part): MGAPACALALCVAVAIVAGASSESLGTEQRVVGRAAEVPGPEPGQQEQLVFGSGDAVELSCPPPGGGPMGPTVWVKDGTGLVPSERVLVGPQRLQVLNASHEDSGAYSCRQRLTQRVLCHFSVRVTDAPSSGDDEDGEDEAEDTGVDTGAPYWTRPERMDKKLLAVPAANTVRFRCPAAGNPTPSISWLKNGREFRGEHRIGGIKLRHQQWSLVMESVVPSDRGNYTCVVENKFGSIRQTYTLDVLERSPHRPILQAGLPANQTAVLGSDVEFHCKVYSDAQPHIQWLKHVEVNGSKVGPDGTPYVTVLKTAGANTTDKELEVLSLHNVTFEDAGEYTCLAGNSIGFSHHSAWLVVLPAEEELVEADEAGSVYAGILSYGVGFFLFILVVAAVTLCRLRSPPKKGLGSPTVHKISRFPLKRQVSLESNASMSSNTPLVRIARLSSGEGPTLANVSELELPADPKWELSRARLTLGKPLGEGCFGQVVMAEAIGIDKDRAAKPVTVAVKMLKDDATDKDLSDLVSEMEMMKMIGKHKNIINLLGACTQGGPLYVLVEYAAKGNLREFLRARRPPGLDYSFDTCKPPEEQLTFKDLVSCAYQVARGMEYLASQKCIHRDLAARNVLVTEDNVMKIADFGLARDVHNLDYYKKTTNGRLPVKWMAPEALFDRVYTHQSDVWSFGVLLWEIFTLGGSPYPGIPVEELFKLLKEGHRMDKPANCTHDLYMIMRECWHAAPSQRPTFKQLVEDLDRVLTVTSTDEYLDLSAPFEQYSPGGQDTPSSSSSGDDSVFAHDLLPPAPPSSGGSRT
T2 sequence (P35968 20-1356): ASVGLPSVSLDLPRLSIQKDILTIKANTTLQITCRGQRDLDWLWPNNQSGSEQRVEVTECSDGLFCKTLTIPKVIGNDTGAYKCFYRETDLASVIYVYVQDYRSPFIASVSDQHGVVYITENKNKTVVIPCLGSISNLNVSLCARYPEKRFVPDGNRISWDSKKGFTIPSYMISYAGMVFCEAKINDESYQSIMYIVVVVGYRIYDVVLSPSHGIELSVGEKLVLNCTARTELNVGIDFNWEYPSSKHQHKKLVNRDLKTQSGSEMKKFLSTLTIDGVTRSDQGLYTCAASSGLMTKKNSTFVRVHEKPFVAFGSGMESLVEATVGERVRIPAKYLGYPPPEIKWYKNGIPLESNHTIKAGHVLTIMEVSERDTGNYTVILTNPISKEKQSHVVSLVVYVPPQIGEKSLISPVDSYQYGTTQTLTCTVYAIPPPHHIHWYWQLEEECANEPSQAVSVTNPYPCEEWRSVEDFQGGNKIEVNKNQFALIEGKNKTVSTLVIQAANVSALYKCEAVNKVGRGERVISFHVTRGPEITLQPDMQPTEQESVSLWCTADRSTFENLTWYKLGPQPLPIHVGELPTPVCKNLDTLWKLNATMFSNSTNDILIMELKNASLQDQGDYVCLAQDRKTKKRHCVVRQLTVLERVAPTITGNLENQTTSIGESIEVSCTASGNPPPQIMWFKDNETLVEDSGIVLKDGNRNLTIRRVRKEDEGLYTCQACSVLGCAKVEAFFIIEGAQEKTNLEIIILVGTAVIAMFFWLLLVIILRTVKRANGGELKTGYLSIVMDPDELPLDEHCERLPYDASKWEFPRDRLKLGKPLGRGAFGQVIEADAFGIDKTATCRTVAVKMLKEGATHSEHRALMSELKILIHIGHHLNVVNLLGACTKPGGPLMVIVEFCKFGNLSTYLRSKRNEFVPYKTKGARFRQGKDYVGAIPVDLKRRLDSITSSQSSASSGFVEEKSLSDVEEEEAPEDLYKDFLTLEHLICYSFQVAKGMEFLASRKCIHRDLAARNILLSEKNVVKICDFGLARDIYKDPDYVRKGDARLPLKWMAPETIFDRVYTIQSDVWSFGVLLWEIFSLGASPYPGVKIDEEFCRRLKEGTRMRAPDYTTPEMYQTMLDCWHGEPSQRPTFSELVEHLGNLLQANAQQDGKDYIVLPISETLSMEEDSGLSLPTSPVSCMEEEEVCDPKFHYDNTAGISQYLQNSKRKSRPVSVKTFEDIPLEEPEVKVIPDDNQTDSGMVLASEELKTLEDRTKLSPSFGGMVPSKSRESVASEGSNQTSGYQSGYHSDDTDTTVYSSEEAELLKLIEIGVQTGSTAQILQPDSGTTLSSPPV

SMILES | GI50 (Ba/F3-TEL-FGFR3 cells) | IC50 (VEGFR2) | IC50 (FGFR3) | BaF3-TEL-FGFR3 prolif (μM) (Ba/F3-TEL-FGFR3 cells; % at 10.0 μM) | melting point | inhibition at 10 µM [1] | IC50 [1] | inhibition at 3 µM [1]
Cc1noc(C)c1CON=Cc1ccn2c(-c3cccc(NC(=O)NCC(F)(F)F)c3)cnc2c1 [Compound 1-12, 1-(3-{7-[(3,5-Dimethyl-isoxazol-4-ylmethoxyimino)-methyl]-imidazo[1,2-a]pyridin-3-yl}-phenyl)-3-(2,2,2-trifluoro-ethyl)-urea] | 240 nM | 0.54 µM | 0.018 µM | – | – | 38% | – | –
O=C(NCC(F)(F)F)Nc1cccc(-c2cnc3cc(C(CC4CC4)=NO)ccn23)c1 [Compound 1-30, 1-[3-(7-{2-Cyclopropyl-1-hydroxyimino-ethyl}-imidazo[1,2-a]pyridin-3-yl)-phenyl]-3-(2,2,2-trifluoro-ethyl)-urea] | – | 0.29 µM | 0.019 µM | 43.0% at | – | 20% | – | –
COCCOCCON=Cc1ccn2c(-c3cccc(NC(=O)NCC(F)(F)F)c3)cnc2c1 [Compound 1-2, 1-[3-(7-{[2-(2-Methoxy-ethoxy)-ethoxyimino]-methyl}-imidazo[1,2-a]pyridin-3-yl)-phenyl]-3-(2,2,2-trifluoro-ethyl)-urea] | 290 nM | 0.885 µM | 0.019 µM | – | – | – | 1600 nM | –
O=C(NCC(F)(F)F)Nc1cccc(-c2cnc3cc(/C=N/OCCCO)ccn23)c1 [Compound 1-18, 1-(3-{7-[(3-Hydroxy-propoxyimino)-methyl]-imidazo[1,2-a]pyridin-3-yl}-phenyl)-3-(2,2,2-trifluoro-ethyl)-urea] | 240 nM | 0.4 µM | 0.019 µM | – | – | – | 4700 nM | –
N=C(N)Nc1nc(CON=Cc2ccn3c(-c4cccc(NC(=O)NCC(F)(F)F)c4)cnc3c2)cs1 [Compound 1-19, 1-(3-{7-[(2-Guanidino-thiazol-4-ylmethoxyimino)-methyl]-imidazo[1,2-a]pyridin-3-yl}-phenyl)-3-(2,2,2-trifluoro-ethyl)-urea] | 2400 nM | 0.67 µM | 0.023 µM | – | – | – | 5200 nM | –
CN(C)CCON=Cc1ccn2c(-c3cccc(NC(=O)NCC(F)(F)F)c3)cnc2c1 [Compound 1-57, 1-(3-{7-[(2-Dimethylamino-ethoxyimino)-methyl]-imidazo[1,2-a]pyridin-3-yl}-phenyl)-3-(2,2,2-trifluoro-ethyl)-urea] | 250 nM | 0.47 µM | 0.029 µM | – | – | – | – | 30%
CN(C)S(=O)(=O)N1CCN(CCCO/N=C/c2ccn3c(-c4cccc(NC(=O)NCC(F)(F)F)c4)cnc3c2)CC1 [Compound 1-63, 4-{3-[1-(3-{3-[3-(2,2,2-Trifluoro-ethyl)-ureido]-phenyl}-imidazo[1,2-a]pyridin-7-yl)-meth-(E)-ylideneaminooxy]-propyl}-piperazine-1-sulfonic acid dimethylamide] | 310 nM | 0.5 µM | 0.016 µM | – | – | – | – | 45%
COCCN(CCON=Cc1ccn2c(-c3cccc(NC(=O)NCC(F)(F)F)c3)cnc2c1)Cc1ccccc1 [Compound 1-41, 1-{3-[7-({2-[Benzyl-(2-methoxy-ethyl)-amino]-ethoxyimino}-methyl)-imidazo[1,2-a]pyridin-3-yl]-phenyl}-3-(2,2,2-trifluoro-ethyl)-urea] | 860 nM | 1.79 µM | 0.0551 µM | – | – | – | 5900 nM | –
COCCO/N=C(\C)c1ccn2c(-c3cccc(NC(=O)NCC(F)(F)F)c3)cnc2c1 [Compound 1-45, 1-[3-(7-{1-[2-Methoxy-ethoxyimino]-ethyl}-imidazo[1,2-a]pyridin-3-yl)-phenyl]-3-(2,2,2-trifluoro-ethyl)-urea] | 48 nM | 0.068 µM | 0.0041 µM | – | – | – | 4000 nM | –

Further compounds by falling IC50 (VEGFR2), results first:

GI50 (Ba/F3-TEL-FGFR3 cells) | IC50 (VEGFR2) | IC50 (FGFR3) | BaF3-TEL-FGFR3 prolif (μM) (Ba/F3-TEL-FGFR3 cells; % at 10.0 μM) | melting point | SMILES | inhibition at 10 µM [1] | IC50 [1] | inhibition at 3 µM [1]
– | 1.4 µM | – | – | 222 to 223 °C | CC(C)Oc1cc(NC(=O)NCC(F)(F)F)cc(-c2cnc3cc(/C(=N/O)C4CC4)ccn23)c1 [Compound 1-66, 1-[3-(7-{Cyclopropyl-[(E)-hydroxyimino]-methyl}-imidazo[1,2-a]pyridin-3-yl)-5-isopropoxy-phenyl]-3-(2,2,2-trifluoro-ethyl)-urea] | – | – | –
1300 nM | 1.2 µM | 0.08 µM | – | – | CON=C(c1ccn2c(-c3cccc(NC(=O)NCC(F)(F)F)c3)cnc2c1)C1CCC1 [Compound 1-27, 1-[3-(7-{Cyclobutyl-methoxyimino-methyl}-imidazo[1,2-a]pyridin-3-yl)-phenyl]-3-(2,2,2-trifluoro-ethyl)-urea] | – | 1500 nM | –
1300 nM | 0.61 µM | 0.018 µM | – | – | Nc1nc(CON=Cc2ccn3c(-c4cccc(NC(=O)NCC(F)(F)F)c4)cnc3c2)cs1 [Compound 1-16, 1-(3-{7-[(2-Amino-thiazol-4-ylmethoxyimino)-methyl]-imidazo[1,2-a]pyridin-3-yl}-phenyl)-3-(2,2,2-trifluoro-ethyl)-urea] | 19% | – | –
320 nM | 0.38 µM | 0.019 µM | – | – | CN1CCN(CCCON=Cc2ccn3c(-c4cccc(NC(=O)NCC(F)(F)F)c4)cnc3c2)CC1 [Compound 1-56, 1-[3-(7-{[3-(4-Methyl-piperazin-1-yl)-propoxyimino]-methyl}-imidazo[1,2-a]pyridin-3-yl)-phenyl]-3-(2,2,2-trifluoro-ethyl)-urea] | – | 3000 nM | –
140 nM | 0.27 µM | 0.019 µM | – | – | CN1CCC(ON=Cc2ccn3c(-c4cccc(NC(=O)NCC(F)(F)F)c4)cnc3c2)CC1 [Compound 1-10, 1-(3-{7-[(1-Methyl-piperidin-4-yloxyimino)-methyl]-imidazo[1,2-a]pyridin-3-yl}-phenyl)-3-(2,2,2-trifluoro-ethyl)-urea] | – | 2800 nM | –
